GI50 data for 21 compounds are collected here from patent US20240246940A1, “HETEROARYL DERIVATIVE COMPOUND AND USE THEREOF” (VORONOI INC., priority 2021, published 2024).

For assay [1], the system named is BT-474 cells (HER2 overexpressing cell line). The assay is described as follows: BT-474 cell proliferation inhibitory activity (CellTiter-Glo, 120 hours). Type of assay: cell-based. The procedure:
To evaluate the cell proliferation inhibitory activity of the compound according to the present invention on HER2 and EGFR kinases, the following method was performed using HER2 overexpressing cell lines (SK-BR-3, BT-474, and N-87) and EGFR expressing cell line (HaCaT).
McCOY'S 5A supplemented with 10% FBS was used for SK-BR-3 cells, RPMI-1640 medium supplemented with 20% FBS was used for BT-474 cancer cells, and RPMI-1640 medium supplemented with 10% FBS was used for N-87 cancer cells. DMEM supplemented with 10% FBS was used for HaCaT cells.
For SK-BR-3 cells, 5000 cells were aliquoted into each well of a white clear bottom 96 well plate (Corning) 48 hours before treatment with the compounds of Examples. For BT-474 cells, 5000 cells were aliquoted into each well of a white clear bottom 96 well plate (Corning) 48 hours before treatment with the compounds of Examples. For N-87 cells, 5000 cells were aliquoted into each well of a white clear bottom 96 well plate (Corning) 24 hours before treatment with the compounds of Examples. For HaCaT cells, 3000 cells were aliquoted into each well of a white clear bottom 96 well plate (Corning) 24 hours before treatment with the compounds of Examples. For SK-BR-3 cells and BT-474 cells, the compounds of Examples were diluted in dimethyl sulfoxide (three-fold dilution, a total of 11 concentrations) and injected each in an amount of 1 μl to a final concentration of 0.2 nM to 10 μM. For N-87 cells, the compounds of Examples were diluted in dimethyl sulfoxide (five-fold dilution, a total of 11 concentrations) and injected each in an amount of 0.5 μl to a final concentration of […] to 5 μM. For HaCaT cells, the compounds of Examples were diluted in dimethyl sulfoxide (three-fold dilution, a total of 11 concentrations) and injected each in an amount of 0.5 μl to a final concentration of 0.8 nM to 45 μM. For the measurement of living cells, the cells were stored at room temperature for 10 minutes using CellTiter-Glo cell viability reagent (Promega) after a certain period of time (SK-BR-3: 120 hours, BT-474: 120 hours, N-87: 72 hours, and HaCaT: 72 hours) post treatment with the compounds of Examples, and the luminescence intensity thereof was measured using a reader (SynergyNeo, Biotek). Each test was repeated three times.
The result values were calculated as a cell growth rate (%) compared to those of the control group. A graph was created using the GraphPad Prism version 5.0 program, and GI50 values were calculated.
A general note: In ATP-based viability assays light output follows the ATP content of the culture.

In assay [2] the test system is HaCaT cells (EGFR expressing cell line). The assay is described as follows: HaCaT cell proliferation inhibitory activity (CellTiter-Glo, 72 hours). It is filed as cell-based. The essentials:
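Cells seeded 24 h (HaCaT 3000/well, N-87 5000/well) or 48 h (SK-BR-3, BT-474 5000/well) before 11-point dosing: 0.2 nM–10 μM (SK-BR-3, BT-474), […]–5 μM (N-87), 0.8 nM–45 μM (HaCaT). CellTiter-Glo luminescence read; GI50 from growth relative to control, triplicate.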

By GI50 is commonly meant the concentration at which growth is held to half of that of the control.

The structures appear in SMILES notation. Read-outs that look alike come from different tables or passages of the source.

On to `C=CC(=O)N1CCC(F)(F)C(Oc2cc(OC)cc3ncnc(Nc4cc(-c5ccco5)ccc4OC)c23)C1` (stereo not drawn) [Example 53, 1-(4,4-difluoro-3-((4-((5-(furan-2-yl)-2-methoxyphenyl)amino)-7-methoxy-quinazolin-5-yl)oxy)piperidin-1-yl)prop-2-en-1-one], for which the concentration for 50% growth inhibition (GI50) in assay [1] (Homo sapiens) and in assay [2] (Homo sapiens) was not above 150 nM throughout.
For the compound `C=CC(=O)N1CCC(Oc2cc3c(Nc4cc(-c5ccc(F)o5)ccc4OC)ncnc3cc2OC)CC1` [Example 88, 1-(4-((4-((5-(5-fluorofuran-2-yl)-2-methoxyphenyl)amino)-7-methoxy-quinazolin-6-yl)oxy)piperidin-1-yl)prop-2-en-1-one], the GI50 in assay [1] (Homo sapiens) and in assay [2] (Homo sapiens) was not above 150 nM each time.
For the compound `C=CC(=O)N1CCC(Oc2cc(OC)cc3ncnc(Nc4cc(-c5ccco5)ccc4OC)c23)C(F)(F)C1` (stereo not drawn) [Example 99, 1-(3,3-difluoro-4-((4-((5-(furan-2-yl)-2-methoxyphenyl)amino)-7-methoxy-quinazolin-5-yl)oxy)piperidin-1-yl)prop-2-en-1-one], the GI50 in assay [1] and in assay [2] was not above 150 nM each time.
On to `C=CC(=O)N1CCC(F)(F)C(Oc2cc(OC)cc3ncnc(Nc4cc(-c5ccc(F)cc5F)ccc4OC)c23)C1` (stereo not drawn) [Example 100, 1-(3-((4-((2′,4′-difluoro-4-methoxy-[1,1′-biphenyl]-3-yl)amino)-7-methoxy-quinazolin-5-yl)oxy)-4,4-difluoro-piperidin-1-yl)prop-2-en-1-one], for which the GI50 in assay [1] and in assay [2] was not above 150 nM each time.
Regarding `C=CC(=O)N1CC[C@H](Oc2cc3c(Nc4cc(-c5ccc(F)cc5F)ccc4OC)ncnc3cc2OC)[C@@H](F)C1` [Example 152, 1-((3S,4S)-4-((4-((2′,4′-difluoro-4-methoxy-[1,1′-biphenyl]-3-yl)amino)-7-methoxy-quinazolin-6-yl)oxy)3-fluoropiperidin-1-yl)prop-2-en-1-one], the 50% growth inhibitory concentration (GI50) in assay [1] (Homo sapiens) and in assay [2] (Homo sapiens) was 150 to 1000 nM each time.
For the compound `C=CC(=O)N1CCC(Oc2cc3c(Nc4cc(-c5ccc6c(c5)OCO6)ccc4OC)ncnc3cc2OC)CC1` [Example 153, 1-(4-((4-((5-(benzo[d][1,3]dioxol-5-yl)-2-methoxyphenyl)amino)-7-methoxy-quinazolin-6-yl)oxy)piperidin-1-yl)prop-2-en-1-one], the 50% growth inhibitory concentration (GI50) was 150 to 1000 nM in assay [1] (Homo sapiens) and more than 1000 nM in assay [2] (Homo sapiens).
For `C=CC(=O)N1[C@@H]2CC[C@H]1C[C@@H](Oc1cc3c(Nc4cc(-c5ccco5)ccc4OC)ncnc3cc1OC)C2` [Example 167, 1-((1R,3r,5S)-3-((4-((5-(furan-2-yl)-2-methoxyphenyl)amino)-7-methoxy-quinazolin-6-yl)oxy)-8-azabicyclo [3.2.1]octan-8-yl)prop-2-en-1-one], in that order: not above 150 nM and not above 150 nM.
Regarding `C=CC(=O)N1[C@@H]2CC[C@H]1C[C@H](Oc1cc3c(Nc4cc(-c5ccco5)ccc4OC)ncnc3cc1OC)C2` [Example 172, 1-((1R,3s,5S)-3-((4-((5-(furan-2-yl)-2-methoxyphenyl)amino)-7-methoxy-quinazolin-6-yl)oxy)-8-azabicyclo [3.2.1]octan-8-yl)prop-2-en-1-one], the GI50 in assay [1] (Homo sapiens) and in assay [2] (Homo sapiens) was not above 150 nM throughout.
Regarding `C=CC(=O)N1CC[C@H](Oc2cc3c(Nc4cc(-c5ccco5)ccc4OC)ncnc3cc2OC)[C@@H](F)C1` [Example 174, 1-((3S,4S)-3-fluoro-4-((4-((5-(furan-2-yl)-2-methoxyphenyl)amino)-7-methoxy-quinazolin-6-yl)oxy)piperidin-1-yl)prop-2-en-1-one], the concentration for 50% growth inhibition (GI50) in assay [1] (Homo sapiens) and in assay [2] (Homo sapiens) was not above 150 nM throughout.
As to `C=CC(=O)N1CC[C@@H](Oc2cc3c(Nc4cc(-c5ccco5)ccc4OC)ncnc3cc2OC)[C@@H](F)C1` [Example 178, 1-((3S,4R)-3-fluoro-4-((4-((5-(furan-2-yl)-2-methoxyphenyl)amino)-7-methoxy-quinazolin-6-yl)oxy)piperidin-1-yl)prop-2-en-1-one], the concentration for 50% growth inhibition (GI50) in assay [1] (Homo sapiens) and in assay [2] (Homo sapiens) was not above 150 nM each time.
Take `C=CC(=O)N1CCC(Oc2cc3c(Nc4cc(-c5ccc(C#N)o5)ccc4OC)ncnc3cc2OC)CC1` [Example 183, 5-(3-((6-((1-acryloyl-piperidin-4-yl)oxy)-7-methoxy-quinazolin-4-yl)amino)-4-methoxyphenyl) furan-2-carbonitrile]: the GI50 in assay [1] (Homo sapiens) and in assay [2] (Homo sapiens) was 150 to 1000 nM in each case.
As for `C=C(F)C(=O)N1CCC(Oc2cc3c(Nc4cc(-c5ccco5)ccc4OC)ncnc3cc2OC)CC1` [Example 184, 2-fluoro-1-(4-((4-((5-(furan-2-yl)-2-methoxyphenyl)amino)-7-methoxy-quinazolin-6-yl)oxy)piperidin-1-yl)prop-2-en-1-one], the GI50 in assay [1] (Homo sapiens) was more than 1000 nM; in assay [2] (Homo sapiens), 150 to 1000 nM.
For `C=CC(=O)N1CCC(Oc2cc3c(Nc4c(OC)ccc(-c5ccco5)c4F)ncnc3cc2OC)CC1` [Example 185, 1-(4-((4-((2-fluoro-3-(furan-2-yl)-6-methoxyphenyl)amino)-7-methoxy-quinazolin-6-yl)oxy)piperidin-1-yl)prop-2-en-1-one], in that order: not above 150 nM and not above 150 nM.
For `COc1ccc(-c2ccc(F)cc2F)cc1Nc1ncnc2cc(OC)c(OC3CCN(C(=O)C(F)Cl)CC3)cc12` (stereo not drawn) [Example 187, 2-chloro-1-(4-((4-((2′,4′-difluoro-4-methoxy-[1,1′-biphenyl]-3-yl)amino)-7-methoxy-quinazolin-6-yl)oxy)piperidin-1-yl)-2-fluoroethan-1-one], the concentration for 50% growth inhibition (GI50) in assay [1] (Homo sapiens) is 150 to 1000 nM; in assay [2] (Homo sapiens), not above 150 nM.
In the same order, the values of `COc1ccc(-c2ccco2)cc1Nc1ncnc2cc(OC)c(OC3CCN(C(=O)C(F)Cl)CC3)cc12` (stereo not drawn) [Example 188, 2-chloro-2-fluoro-1-(4-((4-((5-(furan-2-yl)-2-methoxyphenyl)amino)-7-methoxy-quinazolin-6-yl)oxy)piperidin-1-yl)ethan-1-one] are 150 to 1000 nM and not above 150 nM.
For `C=CC(=O)N1CCC(Oc2cc3c(Nc4cc(-c5ccc6ccsc6c5)ccc4OC)ncnc3cc2OC)CC1` [Example 193, 1-(4-((4-((5-(benzo[b]thiophen-6-yl)-2-methoxyphenyl)amino)-7-methoxy-quinazolin-6-yl)oxy)piperidin-1-yl)prop-2-en-1-one], in that order: 150 to 1000 nM and not above 150 nM.
In the same order, the values of `C=CC(=O)N1CCC(Oc2cc(OC)cc3ncnc(Nc4cc(-c5ccco5)ccc4OC)c23)C(F)(F)C1` (stereo not drawn) [Example 195, 1-(3,3-difluoro-4-((4-((5-(furan-2-yl)-2-methoxyphenyl)amino)-7-methoxy-quinazolin-5-yl)oxy)piperidin-1-yl)prop-2-en-1-one] are not above 150 nM and not above 150 nM.
Regarding `C=CC(=O)N1CCC(Oc2cc3c(Nc4cc(-c5ccc(F)c(C(F)F)c5)ccc4OC)ncnc3cc2OC)CC1` [Example 196, 1-(4-((4-((3′-(difluoromethyl)-4′-fluoro-4-methoxy-[1,1′-biphenyl]-3-yl)amino)-7-methoxy-quinazolin-6-yl)oxy)piperidin-1-yl)prop-2-en-1-one], the GI50 was not above 150 nM in assay [1] (Homo sapiens) and 150 to 1000 nM in assay [2] (Homo sapiens).
For `C=CC(=O)N1CCC(Oc2cc3c(Nc4cc(-c5cccc([N+](=O)[O-])c5)ccc4OC)ncnc3cc2OC)CC1` [Example 197, 1-(4-((7-methoxy-4-((4-methoxy-3′-nitro-[1,1′-biphenyl]-3-yl)amino)quinazolin-6-yl)oxy)piperidin-1-yl)prop-2-en-1-one], in that order: 150 to 1000 nM and more than 1000 nM.
On to `C=CC(=O)N1CCC(Oc2cc3c(Nc4cc(-c5c(F)c(F)c(F)c(F)c5F)ccc4OC)ncnc3cc2OC)CC1` [Example 198], for which the GI50 in assay [1] (Homo sapiens) was 150 to 1000 nM; in assay [2] (Homo sapiens) it was more than 1000 nM.
For `C=CC(=O)N1CC(Oc2cc3c(Nc4cc(-c5cccc(N(C)C)c5)ccc4OC)ncnc3cc2OC)C1` [Example 199, 1-(3-((4-((3′-(dimethylamino)-4-methoxy-[1,1′-biphenyl]-3-yl)amino)-7-methoxy-quinazolin-6-yl)oxy)azetidin-1-yl)prop-2-en-1-one], in that order: not above 150 nM and 150 to 1000 nM.
